Tested on: soybean meristem blocks
Test: Agrobacterium-mediated soybean transformation (SULE selective marker) with screening by external (dropwise) application of tribenuron methyl; positive plants verified by TaqMan
Type: cell-based, Glycine max
Experimental: Screening of soybean meristem block: After the recovery period, the meristem block was transferred to 60 ml of a proliferation medium without a selective agent (tribenuron methyl) (B5 salt 3.1 g/L, B5 vitamin, MES 1 g/L, sucrose 30 g/L, 6-BAP 1 mg/L, agar 8 g/L, cephalosporin 150 mg/L, glutamic acid 100 mg/L, aspartic acid 100 mg/L, pH 5.6), so that the soybean meristem block grew rapidly, and the screening and culturing was carried out for 5-9 days, preferably 7 days, under the conditions of a temperature of 24° C. and a photoperiod (light/dark) of 16:8. After the above soybean meristem block was proliferated for 5-9 days, tribenuron methyl herbicide (95% tribenuron methyl wettable powder) was externally applied in concentration of 1, 3, 5 and 7 μg to per ml of the proliferation medium, respectively, in which the diluted tribenuron methyl herbicide solution was added to the proliferation medium to cause selective growth of the transformed cells, and the screening and culturing was carried out at a temperature of 24° C. and a photoperiod (light/dark) of 16:8 for 2 weeks.
Regeneration of plant from resistant soybean tissue block: The resistant tissue blocks after the above screening treatment with four concentrations of tribenuron methyl were separately taken out from the proliferation medium containing tribenuron methyl, the dead tissues and cotyledons attached thereto were removed, the resistant tissue blocks were transferred to (obliquely inserted into) a B5 differentiation medium without selective agent (tribenuron methyl) (B5 salt 3.1 g/L, B5 vitamin, MES 1 g/L, sucrose 30 g/L, ZT 1 mg/L, agar 8 g/L, cephalosporin 150 mg/L, glutamic acid 50 mg/L, aspartic acid 50 mg/L, gibberellin 1 mg/L, auxin 1 mg/L, pH 5.6), and cultured for differentiation at a temperature of 24° C. and a photoperiod (light/dark) of 16:8 for 14-20 days, preferably 18 days. After the differentiation and growth of the above screened four resistant soybean tissue blocks for 14-20 days, […] of tribenuron methyl herbicide (95% tribenuron methyl wettable powder) was externally applied to per ml of the B5 differentiation medium, in which the diluted solution of tribenuron methyl herbicide was added dropwise to the B5 differentiation medium by a pipette, and the screening and culturing was continued at a temperature of 24° C. and a photoperiod (light/dark) of 16:8 until the resistant tissue blocks (transformed cells) regenerated into plants or the regenerated plants could survive.
In the present example, in the screening step of the above soybean meristem blocks and the plant regenerating step of the resistant soybean tissue blocks, the tribenuron methyl herbicide (95% tribenuron methyl wettable powder) was applied to per ml of the proliferation medium or the B5 differentiation medium, and the concentration examples of the diluted tribenuron methyl herbicide solution added dropwise to the proliferation medium or the B5 differentiation medium were shown in Table 1. The proliferated soybean meristem blocks were screened for tolerance to tribenuron methyl herbicide, and the specific information of the 12 treatments was shown in Table 2, and the screening results for each treatment were shown in Table 3, in which each treatment was repeated for 3 times.
The seedlings differentiated from the above 12 treatments were transferred to a B5 rooting medium (B5 salt 3.1 g/L, B5 vitamin, MES 1 g/L, sucrose 30 g/L, agar 8 g/L, cephalosporin 150 mg/L, indole-3-butyric acid (IBA) 1 mg/L, pH 5.6), cultured at 25° C. to a height of about 10 cm, and moved to a greenhouse to grow until fructification. The transgenic plants could be obtained by culturing at 26° C. for 16 hours and then at 20° C. for 8 hours per day in a greenhouse. […]

[1] = Treatment 1: 1 μg/ml proliferation medium, 3 μg/ml B5 differentiation medium
[2] = Treatment 1: 1 μg/ml proliferation medium, 3 μg/ml B5 differentiation medium, 50 initially germinated soybeans
[3] = Treatment 2: 1 μg/ml proliferation medium, 5 μg/ml B5 differentiation medium
[4] = Treatment 2: 1 μg/ml proliferation medium, 5 μg/ml B5 differentiation medium, 55 initially germinated soybeans
[5] = Treatment 3: 1 μg/ml proliferation medium, 7 μg/ml B5 differentiation medium
[6] = Treatment 3: 1 μg/ml proliferation medium, 7 μg/ml B5 differentiation medium, 75 initially germinated soybeans
[7] = Treatment 4: 3 μg/ml proliferation medium, 3 μg/ml B5 differentiation medium
[8] = Treatment 4: 3 μg/ml proliferation medium, 3 μg/ml B5 differentiation medium, 55 initially germinated soybeans
[9] = Treatment 5: 3 μg/ml proliferation medium, 5 μg/ml B5 differentiation medium
[10] = Treatment 5: 3 μg/ml proliferation medium, 5 μg/ml B5 differentiation medium, 60 initially germinated soybeans
[11] = Treatment 6: 3 μg/ml proliferation medium, 7 μg/ml B5 differentiation medium, 45 initially germinated soybeans
[12] = Treatment 7: 5 μg/ml proliferation medium, 3 μg/ml B5 differentiation medium
[13] = Treatment 7: 5 μg/ml proliferation medium, 3 μg/ml B5 differentiation medium, 50 initially germinated soybeans
[14] = Treatment 8: 5 μg/ml proliferation medium, 5 μg/ml B5 differentiation medium
[15] = Treatment 8: 5 μg/ml proliferation medium, 5 μg/ml B5 differentiation medium, 70 initially germinated soybeans
[16] = Treatment 9: 5 μg/ml proliferation medium, 7 μg/ml B5 differentiation medium
[17] = Treatment 9: 5 μg/ml proliferation medium, 7 μg/ml B5 differentiation medium, 43 initially germinated soybeans
[18] = Treatment 10: 7 μg/ml proliferation medium, 3 μg/ml B5 differentiation medium
[19] = Treatment 10: 7 μg/ml proliferation medium, 3 μg/ml B5 differentiation medium, 80 initially germinated soybeans
[20] = Treatment 11: 7 μg/ml proliferation medium, 5 μg/ml B5 differentiation medium
[21] = Treatment 11: 7 μg/ml proliferation medium, 5 μg/ml B5 differentiation medium, 75 initially germinated soybeans
[22] = Treatment 12: 7 μg/ml proliferation medium, 7 μg/ml B5 differentiation medium
[23] = Treatment 12: 7 μg/ml proliferation medium, 7 μg/ml B5 differentiation medium, 80 initially germinated soybeans

`COC(=O)c1ccccc1S(=O)(=O)NC(=O)N(C)c1nc(C)nc(OC)n1` [tribenuron methyl] was tested, and the Positive plant rate [1] was 22.2%, the Transformation efficiency [1] was 12.0% and the “Number of positive plants” value [2] was 6 plant. For the same compound, the Number of seedlings [2] was 27 plant, the Positive plant rate [3] was 25.0% and the Transformation efficiency [3] was 10.9%. The “Number of positive plants” value [4] was 6 plant, the Number of seedlings [4] was 24 plant and the Positive plant rate [5] was 50.0%. The Transformation efficiency [5] was 6.7%, the “Number of positive plants” value [6] was 5 plant and the Number of seedlings [6] was 10 plant. For the same compound, the Positive plant rate [7] was 20.0%, the Transformation efficiency [7] was 9.1% and the “Number of positive plants” value [8] was 5 plant. It also gave a Number of seedlings [8] of 25 plant, a Positive plant rate [9] of 21.4% and a Transformation efficiency [9] of 10.0%. For the same compound, the “Number of positive plants” value [10] was 6 plant, the Number of seedlings [10] was 28 plant and the Positive plant rate (Treatment 6: 3 μg/ml proliferation medium, 7 μg/ml B5 differentiation medium) was 47.8%. For the same compound, the “Number of positive plants” value [11] was 11 plant, the Number of seedlings [11] was 23 plant and the Positive plant rate [12] was 36.8%. For the same compound, the Transformation efficiency [12] was 14.0%, the “Number of positive plants” value [13] was 7 plant and the Number of seedlings [13] was 19 plant. For the same compound, the Positive plant rate [14] was 25.0%, the Transformation efficiency [14] was 5.7% and the “Number of positive plants” value [15] was 4 plant. For the same compound, the Number of seedlings [15] was 16 plant, the Positive plant rate [16] was 62.5% and the Transformation efficiency [16] was 11.6%. The “Number of positive plants” value [17] was 5 plant, the Number of seedlings [17] was 8 plant and the Positive plant rate [18] was 60.0%. The Transformation efficiency [18] was 11.3%, the “Number of positive plants” value [19] was 9 plant and the Number of seedlings [19] was 15 plant. The Positive plant rate [20] was 77.7%, the Transformation efficiency [20] was 9.3% and the “Number of positive plants” value [21] was 7 plant. For the same compound, the Number of seedlings [21] was 9 plant, the Positive plant rate [22] was 80.0% and the Transformation efficiency [22] was 5.0%. For the same compound, the “Number of positive plants” value [23] was 4 plant and the Number of seedlings [23] was 5 plant.
